Measured values taken from patent US12286437B2, “Cardiac sarcomere inhibitors” (Cytokinetics, Inc., priority 2021, dated 2025).
Like-named read-outs stand apart in the source and are kept apart here.

Experiments:
CYP2C8 = biological target: T1, CYP2C8 (Homo sapiens, UniProt P10632); assay: Time-dependent inhibition of CYP2C8 in human liver microsomes; format: in vitro ADME; details: for (% Activity NADPH T0)/(% Activity NADPH T30): fold change
T1 construct: Pooled human microsomes and selective CYP probe substrates were used; from tissue; host or cells: pooled human liver microsomes
T1 sequence (P10632 1-490): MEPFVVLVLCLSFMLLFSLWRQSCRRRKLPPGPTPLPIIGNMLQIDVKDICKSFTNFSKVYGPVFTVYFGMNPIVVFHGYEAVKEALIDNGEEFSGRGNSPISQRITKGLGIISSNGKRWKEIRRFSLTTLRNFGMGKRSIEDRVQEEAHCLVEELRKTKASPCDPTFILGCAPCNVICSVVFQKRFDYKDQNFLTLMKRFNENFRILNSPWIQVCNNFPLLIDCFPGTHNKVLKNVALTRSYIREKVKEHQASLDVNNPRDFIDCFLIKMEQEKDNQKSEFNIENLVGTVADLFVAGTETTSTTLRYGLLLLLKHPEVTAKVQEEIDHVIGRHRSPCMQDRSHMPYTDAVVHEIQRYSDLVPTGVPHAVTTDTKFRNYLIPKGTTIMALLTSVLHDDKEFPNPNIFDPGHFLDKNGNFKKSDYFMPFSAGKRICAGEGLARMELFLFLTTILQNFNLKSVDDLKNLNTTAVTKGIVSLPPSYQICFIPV
Protocol: (§1) An assessment of the time-dependent Inhibitory Potential of the test compounds against Principal Human Cytochrome P450 Isozymes using Human Liver Microsomes was also carried out using standard methods (Grimm et al, Drug Metab. Dispos., July; 37(7):1355-70. doi: 10.1124/dmd.109.026716, 2009). Pooled human microsomes and selective CYP probe substrates were used for in vitro assessment of test compounds at 25 and 50 μM as time-dependent inhibitors of […] human hepatic cytochrome P450 isozymes (CYP1A2, 2B6, 2C9, 2C19, 2D6, and 3A4). LC-MS/MS was used to quantify metabolite formation. The inhibition of each P450 enzyme in human liver microsomes was measured as the percentage decrease in the activity of marker metabolite formation as measured by LC-MS/MS compared to non-inhibited controls (=100% activity) at time zero and after 30 minutes incubation. The occurrence of any time dependent inhibition was then expressed as the fold change in enzyme activity at time zero relative to the activity after 30 minutes incubation.

[1] = Dog cassette dosing pharmacokinetics; format: in vivo, beagle dogs; details: male, beagle, plasma, IV
Protocol: Non-naïve male beagle dogs (8 months to 3 years of age, body weight 8-14 kg) sourced from Jiangsu Johnsen Bioresource CO. and/or Beijing Rixinkeji CO., LTD and/or Beijing Marshall Biotechnology CO., LTD were used in this study. All animals for IV administration had free access to food and water. The IV dose solution was prepared in 10% DMA/50% PG/40% HPβCD solution (40% w/v aqueous HPβCD) at a concentration of 0.2 mg/mL. Concentrations of IV dose was measured at the end of the study. PK parameters were calculated using the nominal dose values if the measured values were within 20% of the nominal values. Blood samples were collected by venipuncture of peripheral veins except the dosing vein at pre-dose, 5 15, 30 min, 1, 2, 4, 6, 8 and 24 h post-dose. Blood samples were centrifuged and resultant plasma was frozen for bioanalysis. Plasma samples were stored at −80° C. before analysis. Plasma samples were analyzed for compound concentrations using the LC/MS/MS method. Briefly, a 50 μL aliquot of each plasma sample was mixed with 100 μL of acetonitrile that contained an internal standard. The mixture was vortexed and centrifuged. Ten (10) μL of the resulting solution was injected onto a reverse-phase C18 column and the resultant peaks detected on a LC/MS/MS equipped with a turbo ionspray ionization source. Sample concentrations below the limit of quantification (BLQ) were treated as zero for PK calculations. PK parameters were estimated from individual animals using noncompartmental analysis of the concentration-time data (Phoenix WinNonLin software, version 64; Pharsight, Mountain View, CA). The elimination rate constant (k) was calculated as the absolute value of the slope of the linear regression of logarithm (log) of the concentration versus time for the last three data points of the concentration-time profiles. Apparent elimination half-life (t1/2) values were calculated as ln(2)/k. Area under the concentration-time curve (AUC) values were estimated using linear trapezoidal method. AUCt values were calculated from the dosing time to the last measurable concentration. AUC∞ values were calculated as the sum of the corresponding AUCt and the ratio of the last detectable concentration divided by k. Plasma clearance (CL) was calculated from Dose/AUC∞. Mean resident time extrapolated to infinity (MRT∞) was estimated by moment analysis. Vss was calculated from MRT∞×CL. Maximum concentration (Cmax) and time to reach Cmax (tmax) were recorded as observed. As this was a cross-over study, bioavailability was calculated dAUC∞,po/dAUC∞,iv×100% where dAUC was the dose normalized AUC value from the same animal given IV and PO dose. Data for compounds tested are provided in Table G. Compounds tested were prepared in accordance with the synthetic procedures described herein.

CYP2C19 = biological target: T2, CYP2C19 (Homo sapiens, UniProt P33261); assay: Time-dependent inhibition of CYP2C19 in human liver microsomes; format: in vitro ADME; details: for (% Activity NADPH T0)/(% Activity NADPH T30): fold change
T2 construct: Pooled human microsomes and selective CYP probe substrates were used; from tissue; host or cells: pooled human liver microsomes
Protocol: as §1

CYP3A4 = biological target: T3, CYP3A4 (Homo sapiens, UniProt P08684); assay: Time-dependent inhibition of CYP3A4 in human liver microsomes (testosterone and midazolam probes); format: in vitro ADME; details: for (% Activity NADPH T0)/(% Activity NADPH T30): fold change; for activity at 30 min, 25 µM / activity at 30 min, 50 µM: human, after 30 minutes incubation, read-out: % Activity NADPH T30; for activity at 30 min, 25 µM / activity at 30 min, 50 µM / activity at 0 min, 25 µM / activity at 0 min, 50 µM: pooled human liver microsomes; for activity at 0 min, 25 µM / activity at 0 min, 50 µM: human liver microsomes, time zero, read-out: % Activity NADPH T0
T3 construct: Pooled human microsomes and selective CYP probe substrates were used; from tissue; host or cells: pooled human liver microsomes
Protocol: as §1

[2] = CYP3A4-M (midazolam probe substrate), 25 μM
[3] = CYP3A4-M (midazolam probe substrate), 50 μM
[4] = CYP3A4-T (testosterone probe substrate), 25 μM
[5] = CYP3A4-T (testosterone probe substrate), 50 μM

T2 sequence (P33261 whole entry): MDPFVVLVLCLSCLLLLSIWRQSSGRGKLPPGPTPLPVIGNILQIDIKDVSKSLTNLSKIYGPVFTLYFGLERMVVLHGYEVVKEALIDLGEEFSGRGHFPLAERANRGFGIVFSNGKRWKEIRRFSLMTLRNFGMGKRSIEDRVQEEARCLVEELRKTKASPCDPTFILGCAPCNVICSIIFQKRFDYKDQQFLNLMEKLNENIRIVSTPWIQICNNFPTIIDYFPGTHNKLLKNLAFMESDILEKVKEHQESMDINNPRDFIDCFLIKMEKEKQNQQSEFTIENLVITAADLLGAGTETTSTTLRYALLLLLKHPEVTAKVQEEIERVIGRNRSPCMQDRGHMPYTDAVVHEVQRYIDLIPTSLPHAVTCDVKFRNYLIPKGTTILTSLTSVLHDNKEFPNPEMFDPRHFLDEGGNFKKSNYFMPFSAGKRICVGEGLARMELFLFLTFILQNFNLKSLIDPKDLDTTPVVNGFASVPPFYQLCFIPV
T3 sequence (P08684 whole entry): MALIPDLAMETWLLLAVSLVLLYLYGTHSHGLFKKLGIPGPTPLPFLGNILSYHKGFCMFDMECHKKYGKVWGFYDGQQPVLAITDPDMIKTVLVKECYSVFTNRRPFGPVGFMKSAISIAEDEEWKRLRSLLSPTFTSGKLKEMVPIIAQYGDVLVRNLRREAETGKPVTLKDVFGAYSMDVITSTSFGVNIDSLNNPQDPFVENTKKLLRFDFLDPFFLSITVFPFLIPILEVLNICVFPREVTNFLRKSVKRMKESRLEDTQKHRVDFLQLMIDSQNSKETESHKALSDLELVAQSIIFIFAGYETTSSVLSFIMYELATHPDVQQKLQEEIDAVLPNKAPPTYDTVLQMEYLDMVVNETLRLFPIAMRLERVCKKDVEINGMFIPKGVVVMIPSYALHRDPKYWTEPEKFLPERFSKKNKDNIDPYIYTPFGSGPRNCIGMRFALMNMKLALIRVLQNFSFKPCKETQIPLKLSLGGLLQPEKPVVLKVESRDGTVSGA

SMILES: C[C@H]1CC[C@H](N2CC(=O)N(Cc3ccc(F)c(Cl)c3)C3(CN(C(N)=O)C3)C2=O)CC1 [Compound 7, 5-(3-chloro-4-fluorobenzyl)-8-((1r,4r)-4-methylcyclohexyl)-6,9-dioxo-2,5,8-triazaspiro[3.5]nonane-2-carboxamide]
- (% Activity NADPH T0)/(% Activity NADPH T30) (CYP2C8; CYP2C8, 25 μM): 1.1
- (% Activity NADPH T0)/(% Activity NADPH T30) (CYP2C8; CYP2C8, 50 μM): 1.1
- activity at 30 min, 25 µM (CYP2C8; pooled human liver microsomes, CYP2C8, 25 μM, human liver microsomes, after 30 minutes incubation, read-out: % Activity NADPH T30): 64%
- activity at 0 min, 25 µM (CYP2C8; pooled human liver microsomes, CYP2C8, 25 μM, human liver microsomes, time zero, read-out: % Activity NADPH T0): 72%
- activity at 30 min, 50 µM (CYP2C8; pooled human liver microsomes, CYP2C8, 50 μM, human liver microsomes, after 30 minutes incubation, read-out: % Activity NADPH T30): 103%
- activity at 0 min, 50 µM (CYP2C8; pooled human liver microsomes, CYP2C8, 50 μM, human liver microsomes, time zero, read-out: % Activity NADPH T0): 109%
- clearance [1]: 9.22 mL/min/kg
- Vd ([1]; read-out: Vss): 6.33 L/kg
- half-life ([1]; read-out: t½ (converted)): 10.9 h
- (% Activity NADPH T0)/(% Activity NADPH T30) (CYP2C19; CYP2C19, 25 μM): 1.0
- (% Activity NADPH T0)/(% Activity NADPH T30) (CYP2C19; CYP2C19, 50 μM): 1.0
- activity at 30 min, 25 µM (CYP2C19; pooled human liver microsomes, CYP2C19, 25 μM, human liver microsomes, after 30 minutes incubation, read-out: % Activity NADPH T30): 87%
- activity at 0 min, 25 µM (CYP2C19; pooled human liver microsomes, CYP2C19, 25 μM, human liver microsomes, time zero, read-out: % Activity NADPH T0): 87%
- activity at 30 min, 50 µM (CYP2C19; pooled human liver microsomes, CYP2C19, 50 μM, human liver microsomes, after 30 minutes incubation, read-out: % Activity NADPH T30): 83%
- activity at 0 min, 50 µM (CYP2C19; pooled human liver microsomes, CYP2C19, 50 μM, human liver microsomes, time zero, read-out: % Activity NADPH T0): 82%
- (% Activity NADPH T0)/(% Activity NADPH T30) (CYP3A4; [2]): 1.0
- (% Activity NADPH T0)/(% Activity NADPH T30) (CYP3A4; [3]): 1.0
- (% Activity NADPH T0)/(% Activity NADPH T30) (CYP3A4; [4]): 1.0
- (% Activity NADPH T0)/(% Activity NADPH T30) (CYP3A4; [5]): 1.0
- activity at 30 min, 25 µM (CYP3A4; [2]): 100%
- activity at 30 min, 50 µM (CYP3A4; [3]): 100%
- activity at 30 min, 25 µM (CYP3A4; [4]): 100%
- activity at 30 min, 50 µM (CYP3A4; [5]): 100%
- activity at 0 min, 25 µM (CYP3A4; [2]): 100%
- activity at 0 min, 50 µM (CYP3A4; [3]): 100%
- activity at 0 min, 25 µM (CYP3A4; [4]): 100%
- activity at 0 min, 50 µM (CYP3A4; [5]): 100%

SMILES: C[C@H]1CC[C@H](N2CC(=O)N(Cc3ccc(F)c(F)c3)C3(CN(C=O)C3)C2=O)CC1 [Compound 4, 5-(3,4-difluorobenzyl)-8-((1r,4r)-4-methylcyclohexyl)-6,9-dioxo-2,5,8-triazaspiro[3.5]nonane-2-carbaldehyde]
- (% Activity NADPH T0)/(% Activity NADPH T30) (CYP2C8; CYP2C8, 25 μM): 1.0
- (% Activity NADPH T0)/(% Activity NADPH T30) (CYP2C8; CYP2C8, 50 μM): 1.2
- (% Activity NADPH T0)/(% Activity NADPH T30) (CYP2C19; CYP2C19, 25 μM): 1.4
- (% Activity NADPH T0)/(% Activity NADPH T30) (CYP2C19; CYP2C19, 50 μM): 1.1
- (% Activity NADPH T0)/(% Activity NADPH T30) (CYP2C19; CYP2C19, 50 μM, listed as compound 4): no change in activity
- (% Activity NADPH T0)/(% Activity NADPH T30) (CYP3A4; [2]): 0.8
- (% Activity NADPH T0)/(% Activity NADPH T30) (CYP3A4; [3]): 0.7
- (% Activity NADPH T0)/(% Activity NADPH T30) (CYP3A4; [4]): 0.9
- (% Activity NADPH T0)/(% Activity NADPH T30) (CYP3A4; [5]): 0.8
